Laboratory results taken from ChEMBL document CHEMBL3576773, “Studies on the ATP Binding Site of Fyn Kinase for the Identification of New Inhibitors and Their Evaluation as Potential Agents against Tauopathies and Tumors” (J Med Chem, 2015).
Values belong to the compound of their own block, whether it stands above or below them.

Legend:
[1] = Cytotoxicity against human fibroblast at 2 uM after 48 hrs; assay type: cell-based
[2] = Permeability of the compound by BBB-PAMPA-LC-UV analysis; assay type: physicochemical
[3] = Induction of apoptosis in Ph+ CML patient CD34+ early hematopoietic progenitor cells assessed as increase in apoptotic level at 2 uM after 48 hrs by Annexin V-FITC/Propidium iodide staining based FACSCalibur flow cytometry; assay type: functional, Homo sapiens
[4] = Permeability of the compound by PAMPA-LC-UV analysis; assay type: physicochemical
[5] = Anticancer activity against human U87 cells assessed as cell growth inhibition after 20 to 70 hrs by Real-time RTCA iCELLgence system; assay type: functional, cell-based, U-87MG ATCC; conditions: U-87 MG
MDA-MB-231 = assay: Anticancer activity against human MDA-MB-231 cells assessed as cell growth inhibition after 20 to 70 hrs by Real-time RTCA iCELLgence system; assay type: functional, cell-based
[6] = Metabolic stability in human liver microsomes measured after 1 hr in presence of NADPH generating system; assay type: ADME; conditions: read-out: Stability
K562 [7] = assay: Antiproliferative activity against human K562 cells assessed as vitality after 72 hrs by automatic cell counting analysis; assay type: functional, cell-based; conditions: K562, 72 h
K562 [8] = assay: Induction of apoptosis in human K562 cells assessed as accumulation of hypodiploid cells at 0.1 uM
[9] = biological target: Tyrosine-protein kinase Fyn (Homo sapiens, UniProt P06241); assay: Inhibition of human recombinant full-length Fyn using Src substrate peptide after 15 mins incubation by MicroBeta liquid scintillation counting analysis
Liver microsome [10] = assay: Drug formation in human liver microsomes treated with 1-(2-Chloro-2-phenylethyl)-3-(4-methylphenyl)-1H-pyrazolo[3,4-d]pyrimidin-4-amine measured after 1 hr by LC-UV-MS analysis; assay type: ADME
Liver microsome [11] = assay: Drug formation in human liver microsomes treated with 1-(2-Chloro-2-phenylethyl)-3-(4-fluorophenyl)-1H-pyrazolo[3,4-d]pyrimidin-4-amine measured after 1 hr by LC-UV-MS analysis; assay type: ADME
Liver microsome [12] = assay: Drug formation in human liver microsomes treated with 1-(2-Chloro-2-phenylethyl)-3-(4-methyoxyphenyl)-1H-pyrazolo-[3,4-d]pyrimidin-4-amine measured after 1 hr by LC-UV-MS analysis; assay type: ADME
Liver microsome [13] = assay: Drug formation in human liver microsomes treated with 3-(4-Chlorophenyl)-1-(2-chloro-2-phenylethyl)-1H-pyrazolo[3,4-d]pyrimidin-4-amine measured after 1 hr by LC-UV-MS analysis; assay type: ADME
Liver microsome [14] = assay: Drug formation in human liver microsomes treated with 1-(2-Chloro-2-phenylethyl)-3-phenyl-1H-pyrazolo[3,4-d]-pyrimidin-4-amine hydrocloride measured after 1 hr by LC-UV-MS analysis; assay type: ADME

Chain of Tyrosine-protein kinase Fyn (P06241 whole entry): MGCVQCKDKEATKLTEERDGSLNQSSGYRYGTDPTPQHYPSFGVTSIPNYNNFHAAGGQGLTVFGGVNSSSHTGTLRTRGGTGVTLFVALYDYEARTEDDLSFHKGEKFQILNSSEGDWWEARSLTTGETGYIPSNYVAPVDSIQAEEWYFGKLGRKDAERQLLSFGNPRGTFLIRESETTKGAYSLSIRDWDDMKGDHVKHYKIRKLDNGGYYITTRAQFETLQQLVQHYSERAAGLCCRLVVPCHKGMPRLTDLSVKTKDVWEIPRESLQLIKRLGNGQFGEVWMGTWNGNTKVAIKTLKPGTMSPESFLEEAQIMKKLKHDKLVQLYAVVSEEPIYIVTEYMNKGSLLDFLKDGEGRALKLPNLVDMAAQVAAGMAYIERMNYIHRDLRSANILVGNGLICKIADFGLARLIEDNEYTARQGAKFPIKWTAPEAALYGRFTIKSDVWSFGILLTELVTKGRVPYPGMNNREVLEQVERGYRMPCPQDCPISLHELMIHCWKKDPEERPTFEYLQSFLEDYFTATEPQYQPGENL

Papp [2]: 8.4 ×10⁻⁶ cm/s
Papp [4]: 9.9 ×10⁻⁶ cm/s
IC50 (MDA-MB-231): 3.7 µM
remaining at 1 h [6]: 85.2%
IC50 (K562 [7]): 560 nM
Structure (SMILES): Nc1ncnc2c1c(-c1ccc(Cl)cc1)nn2CC(Cl)c1ccccc1 (stereo not drawn)
Activity [1]: Non-toxic
Activity [3]: 35%
IC50 [5]: 74 nM

Papp [2]: 11.5 ×10⁻⁶ cm/s
Papp [4]: 10.9 ×10⁻⁶ cm/s
IC50 (MDA-MB-231): 8.3 µM
remaining at 1 h [6]: 90%
IC50 (K562 [7]): 300 nM
Structure (SMILES): Cc1ccc(-c2nn(CC(Cl)c3ccccc3)c3ncnc(N)c23)cc1 (stereo not drawn)
Activity [1]: Non-toxic
Activity [3]: 30%
IC50 [5]: 780 nM
Activity (K562 [8]): 50%

Ki [9]: Not Active
Structure (SMILES): Clc1cccc(Nc2nc(SC3CCCC3)nc3c2cnn3CC(Cl)c2ccccc2)c1 (stereo not drawn)

Ki [9]: Not Active
Structure (SMILES): CCC(C)Sc1nc(NCc2ccccc2)c2cnn(CC(Cl)c3ccccc3)c2n1 (stereo not drawn)

Ki ([9]; read-out: Ki): 2100 nM
Structure (SMILES): CCc1ccc2[nH]c(=O)c(CN(Cc3ccc4c(c3)OCO4)C(=O)Nc3ccc(F)cc3)cc2c1

Drug metabolism (Liver microsome [10]): metabolite_detected
Drug metabolism (Liver microsome [11]): metabolite_detected
Drug metabolism (Liver microsome [12]): metabolite_detected
Drug metabolism (Liver microsome [13]): metabolite_detected
Drug metabolism (Liver microsome [14]): metabolite_detected
Structure (SMILES): Nc1ncnc2c1c(-c1ccccc1)nn2CC(O)c1ccccc1 (stereo not drawn)

Ki [9]: Not Active
Structure (SMILES): ClC(Cn1ncc2c(NCCc3ccccc3)nc(SCCN3CCOCC3)nc21)c1ccccc1 (stereo not drawn)

Ki ([9]; read-out: Ki): 10000 nM
Structure (SMILES): CC(=O)c1ccc(-c2nn(CC(C)c3ccccc3)c3ncnc(N)c23)cc1 (stereo not drawn)

Papp [2]: 14.5 ×10⁻⁶ cm/s
Papp [4]: 17.5 ×10⁻⁶ cm/s
remaining at 1 h [6]: 95.6%
Structure (SMILES): COc1ccc(-c2nn(CC(Cl)c3ccccc3)c3ncnc(N)c23)cc1 (stereo not drawn)

Ki [9]: Not Active
Structure (SMILES): CCCCSc1nc(NCCc2ccccc2)c2cnn(CC(Cl)c3ccccc3)c2n1 (stereo not drawn)

Ki [9]: Not Active
Structure (SMILES): ClC(Cn1ncc2c(NCCc3ccccc3)nc(SC3CCCC3)nc21)c1ccccc1 (stereo not drawn)

Drug metabolism (Liver microsome [10]): metabolite_detected
Drug metabolism (Liver microsome [11]): metabolite_detected
Drug metabolism (Liver microsome [12]): metabolite_detected
Drug metabolism (Liver microsome [13]): metabolite_detected
Drug metabolism (Liver microsome [14]): metabolite_detected
Structure (SMILES): Nc1ncnc2c1c(-c1ccccc1)nn2CC(=O)c1ccccc1

Papp [2]: 12.9 ×10⁻⁶ cm/s
Papp [4]: 16.5 ×10⁻⁶ cm/s
remaining at 1 h [6]: 95.7%
IC50 (K562 [7]): 12600 nM
Structure (SMILES): Nc1ncnc2c1c(-c1ccc(F)cc1)nn2CC(Cl)c1ccccc1 (stereo not drawn)

Ki [9]: Not Active
Structure (SMILES): Cc1ccc(-c2cc(-c3ccccc3)c3c(N)c(C(=O)Nc4ccc(F)cc4)sc3n2)cc1

Ki ([9]; read-out: Ki): 780 nM
Structure (SMILES): CC(Cn1nc(-c2ccc(Cl)cc2)c2c(N)ncnc21)c1ccccc1 (stereo not drawn)

Drug metabolism (Liver microsome [12]): metabolite_detected
Structure (SMILES): Nc1ncnc2c1c(-c1ccc(O)cc1)nn2CC(Cl)c1ccccc1 (stereo not drawn)

Ki ([9]; read-out: Ki): 10000 nM
Structure (SMILES): COC(Cn1nc(-c2ccccc2)c2c(N)nc(SC)nc21)c1ccccc1 (stereo not drawn)

Ki [9]: Not Active
Structure (SMILES): Fc1cccc(Nc2nc(SC3CCCC3)nc3c2cnn3CC(Cl)c2ccccc2)c1 (stereo not drawn)

Ki [9]: Not Active
Structure (SMILES): CCC(C)Sc1nc(NCCc2ccccc2)c2cnn(CC(Cl)c3ccccc3)c2n1 (stereo not drawn)

Ki ([9]; read-out: Ki): 10000 nM
Structure (SMILES): CNc1nc(SC)nc2c1c(-c1ccccc1)nn2CCc1ccccc1

Ki ([9]; read-out: Ki): 2250 nM
Structure (SMILES): CCOc1ccc(-c2[nH]ncc2CN2CCN(S(=O)(=O)N3CCCC3)CC2)cc1

Ki ([9]; read-out: Ki): 900 nM
Papp [2]: 9.5 ×10⁻⁶ cm/s
Papp [4]: 12.8 ×10⁻⁶ cm/s
remaining at 1 h [6]: 78.9%
Structure (SMILES): Nc1ncnc2c1c(-c1ccccc1)nn2CC(Cl)c1ccccc1 (stereo not drawn)
